“And” between values parts separate entries of the source, which are not always exact repeats. Equal values may be shown once. Results filed as inconclusive are left out.
System: mice, ADJ-PC-20 plasma cell tumor sc, T/C %
Assay: NCI In Vivo Anticancer Drug Screen. Data for tumor model ADJ-PC-20 Plasma Cell (subcutaneous) in unknown mice
Details: endpoint: mean tumor weight, higher = larger tumour
Protocol: The antitumor activity of compounds was measured in mice bearing transplantable tumors. Survival or tumor size were measured and the results are expressed as the measurement made in the treated group (T) divided by the measurement made in the vehicle treated control group (C). The tumor model used in this assay is ADJ-PC-20 Plasma Cell (subcutaneous) in unknown mice

[1] = dose: 250.0 mg/kg/injection, schedule: Q01DX010 (ip), vehicle: saline
[2] = dose: 3.75 mg/kg/injection, schedule: Q01DX010 (ip), vehicle: carboxymethylcellulose (CMC)
[3] = dose: 7.5 mg/kg/injection, schedule: Q01DX010 (ip), vehicle: carboxymethylcellulose (CMC)
[4] = dose: 15.0 mg/kg/injection, schedule: Q01DX010 (ip), vehicle: carboxymethylcellulose (CMC)
[5] = dose: 30.0 mg/kg/injection, schedule: Q01DX010 (ip), vehicle: carboxymethylcellulose (CMC)
[6] = dose: 37.5 mg/kg/injection, schedule: Q01DX010 (ip), vehicle: carboxymethylcellulose (CMC)
[7] = dose: 62.5 mg/kg/injection, schedule: Q01DX010 (ip), vehicle: carboxymethylcellulose (CMC)
[8] = dose: 125.0 mg/kg/injection, schedule: Q01DX010 (ip), vehicle: carboxymethylcellulose (CMC)
[9] = dose: 500.0 mg/kg/injection, schedule: Q01DX010 (ip), vehicle: carboxymethylcellulose (CMC)
[10] = dose: 1000.0 mg/kg/injection, schedule: Q01DX010 (ip), vehicle: carboxymethylcellulose (CMC)
[11] = dose: 3.1 mg/kg/injection, schedule: Q01DX010 (ip), vehicle: carboxymethylcellulose (CMC)
[12] = dose: 6.3 mg/kg/injection, schedule: Q01DX010 (ip), vehicle: carboxymethylcellulose (CMC)
[13] = dose: 12.5 mg/kg/injection, schedule: Q01DX010 (ip), vehicle: carboxymethylcellulose (CMC)
[14] = dose: 25.0 mg/kg/injection, schedule: Q01DX010 (ip), vehicle: carboxymethylcellulose (CMC)
[15] = dose: 50.0 mg/kg/injection, schedule: Q01DX010 (ip), vehicle: carboxymethylcellulose (CMC)
[16] = dose: 100.0 mg/kg/injection, schedule: Q01DX010 (ip), vehicle: other

CCCNc1ncnc2[nH]ncc12
T/C (dose: 5.0 mg/kg/injection, schedule: Q01DX010 (ip), vehicle: water): 97 % of control | T/C (dose: 10.0 mg/kg/injection, schedule: Q01DX010 (ip), vehicle: water): 86 % of control | T/C (dose: 20.0 mg/kg/injection, schedule: Q01DX010 (ip), vehicle: water): 95 % of control

COC(=O)c1nc(-c2ccc3c(n2)C(=O)C(N)=C(OC)C3=O)c(N)c(-c2ccc(OC)c(OC)c2O)c1C
T/C (dose: 0.35 mg/kg/injection, schedule: Q01DX010 (ip), vehicle: other): 71 % of control | T/C (dose: 0.65 mg/kg/injection, schedule: Q01DX010 (ip), vehicle: other): 60 % of control | T/C (dose: 1.08 mg/kg/injection, schedule: Q01DX010 (ip), vehicle: other): 32 % of control | T/C (dose: 1.8 mg/kg/injection, schedule: Q01DX010 (ip), vehicle: other): 4 % of control

CC(=O)N(C)C
T/C [1]: 60 % of control | T/C (dose: 500.0 mg/kg/injection, schedule: Q01DX010 (ip), vehicle: saline): 75 % of control | T/C (dose: 1000.0 mg/kg/injection, schedule: Q01DX010 (ip), vehicle: saline): 51 % of control

[I][Hg][CH2]C1COC([CH2][Hg][I])CO1 (stereo not given)
T/C [2]: 87 % of control | T/C [3]: 111 % of control | T/C [4]: 104 % of control | T/C [5]: 115 % of control

O=C1C(NC(=O)C2CCCCC2)=C(N2CC2)C(=O)C(NC(=O)C2CCCCC2)=C1N1CC1
T/C [6]: 102 % of control and 115 % of control

O=c1[nH]c(=O)n(C2CC(O)C(CO)O2)cc1Br (stereo not given)
T/C (dose: 31.25 mg/kg/injection, schedule: Q01DX010 (ip), vehicle: carboxymethylcellulose (CMC)): 80 % of control | T/C [7]: 86 % of control | T/C [8]: 74 % of control | T/C [9]: 88 % of control | T/C [10]: 74 % of control

C[C@]12CCC(=O)C=C1CC[C@H]1[C@@H]3CC[C@](O)(C(=O)CO)[C@@]3(C)C[C@H](O)[C@@]12F
T/C (dose: 2.5 mg/kg/injection, schedule: Q01DX010 (sc), vehicle: steriod suspending solution): 62 % of control | T/C (dose: 5.0 mg/kg/injection, schedule: Q01DX010 (sc), vehicle: steriod suspending solution): 43 % of control | T/C (dose: 10.0 mg/kg/injection, schedule: Q01DX010 (sc), vehicle: steriod suspending solution): 33 % of control

N#Cc1cn(C2OC(CO)C(O)C2O)c2ncnc(N)c12 (stereo not given)
T/C (dose: 0.12 mg/kg/injection, schedule: Q01DX010 (ip), vehicle: carboxymethylcellulose (CMC)): 47 % of control

CCCSc1ncnc2nc[nH]c12
T/C (dose: 4.0 mg/kg/injection, schedule: Q01DX010 (ip), vehicle: carboxymethylcellulose (CMC)): 81 % of control | T/C (dose: 8.0 mg/kg/injection, schedule: Q01DX010 (ip), vehicle: carboxymethylcellulose (CMC)): 43 % of control | T/C (dose: 16.0 mg/kg/injection, schedule: Q01DX010 (ip), vehicle: carboxymethylcellulose (CMC)): 28 % of control

Clc1ccc(C(c2ccccc2Cl)C(Cl)Cl)cc1 (stereo not given)
T/C (dose: 25.0 mg/kg/injection, schedule: Q01DX010 (sc), vehicle: steriod suspending solution): 66 % of control | T/C (dose: 50.0 mg/kg/injection, schedule: Q01DX010 (sc), vehicle: steriod suspending solution): 60 % of control | T/C (dose: 200.0 mg/kg/injection, schedule: Q01DX010 (sc), vehicle: steriod suspending solution): 86 % of control and 100 % of control and 109 % of control | T/C (dose: 400.0 mg/kg/injection, schedule: Q01DX010 (sc), vehicle: steriod suspending solution): 92 % of control | T/C (dose: 800.0 mg/kg/injection, schedule: Q01DX010 (sc), vehicle: steriod suspending solution): 73 % of control

C[N+](C)(C)c1ncnc2nc[nH]c12
T/C (dose: 0.8 mg/kg/injection, schedule: Q01DX010 (ip), vehicle: carboxymethylcellulose (CMC)): 70 % of control | T/C (dose: 1.6 mg/kg/injection, schedule: Q01DX010 (ip), vehicle: carboxymethylcellulose (CMC)): 59 % of control | T/C [11]: 69 % of control | T/C [12]: 70 % of control | T/C [13]: 36 % of control | T/C [14]: 52 % of control | T/C [15]: 6 % of control

O=c1[nH]c(=O)n(C2CC(O)C(CO)O2)cc1F (stereo not given)
T/C [14]: 67 % of control | T/C [15]: 21 % of control | T/C (dose: 100.0 mg/kg/injection, schedule: Q01DX010 (ip), vehicle: carboxymethylcellulose (CMC)): 36 % of control

CCOC(N)=O
T/C [1]: 80 % of control and 95 % of control

S=P(N1CC1)(N1CC1)N1CC1
T/C (dose: 0.63 mg/kg/injection, schedule: Q01DX010 (ip), vehicle: saline): 57 % of control | T/C (dose: 1.25 mg/kg/injection, schedule: Q01DX010 (ip), vehicle: saline): 2 % of control

N=C(N)SCc1c2ccccc2c(CSC(=N)N)c2ccccc12
T/C (dose: 10.0 mg/kg/injection, schedule: Q01DX010 (ip), vehicle: carboxymethylcellulose (CMC)): 119 % of control | T/C (dose: 20.0 mg/kg/injection, schedule: Q01DX010 (ip), vehicle: carboxymethylcellulose (CMC)): 55 % of control

C[n+]1c2ccccc2nc2c(N)cc(N)cc21
T/C (dose: 6.25 mg/kg/injection, schedule: Q01DX010 (ip), vehicle: carboxymethylcellulose (CMC)): 92 % of control | T/C [13]: 114 % of control | T/C [14]: 99 % of control

O=CCC(O)C(O)C(O)CO (stereo not given)
T/C [7]: 110 % of control | T/C [8]: 115 % of control | T/C (dose: 250.0 mg/kg/injection, schedule: Q01DX010 (ip), vehicle: carboxymethylcellulose (CMC)): 117 % of control | T/C [9]: 80 % of control | T/C [10]: 96 % of control | T/C (dose: 2000.0 mg/kg/injection, schedule: Q01DX010 (ip), vehicle: carboxymethylcellulose (CMC)): 94 % of control

Nc1nc2n[nH]nc2c(=O)[nH]1
T/C (dose: 12.5 mg/kg/injection, schedule: Q01DX010 (ip), vehicle: other): 113 % of control | T/C (dose: 75.0 mg/kg/injection, schedule: Q01DX010 (ip), vehicle: other): 58 % of control | T/C [16]: 83 % of control

Cc1n[nH]c(=O)[nH]c1=O
T/C [16]: 80 % of control | T/C (dose: 200.0 mg/kg/injection, schedule: Q01DX010 (ip), vehicle: other): 85 % of control

CC[C@H](c1ccc(O)cc1)[C@@H](CC)c1ccc(O)cc1
T/C (dose: 31.25 mg/kg/injection, schedule: Q01DX010 (sc), vehicle: steriod suspending solution): 185 % of control | T/C (dose: 62.5 mg/kg/injection, schedule: Q01DX010 (sc), vehicle: steriod suspending solution): 180 % of control

Nc1nc(=S)c2ncn(C3OC(CO)C(O)C3O)c2[nH]1 (stereo not given)
T/C (dose: 0.31 mg/kg/injection, schedule: Q01DX010 (ip), vehicle: carboxymethylcellulose (CMC)): 63 % of control | T/C (dose: 0.63 mg/kg/injection, schedule: Q01DX010 (ip), vehicle: carboxymethylcellulose (CMC)): 31 % of control | T/C (dose: 1.25 mg/kg/injection, schedule: Q01DX010 (ip), vehicle: carboxymethylcellulose (CMC)): 7 % of control | T/C (dose: 2.5 mg/kg/injection, schedule: Q01DX010 (ip), vehicle: carboxymethylcellulose (CMC)): 1 % of control

C[C@@H]1C[C@@H]([C@H](O)CC2CC(=O)NC(=O)C2)C(=O)[C@@H](C)C1
T/C (dose: 1.6 mg/kg/injection, schedule: Q01DX010 (ip), vehicle: water): 91 % of control | T/C (dose: 3.1 mg/kg/injection, schedule: Q01DX010 (ip), vehicle: water): 84 % of control | T/C (dose: 6.25 mg/kg/injection, schedule: Q01DX010 (ip), vehicle: saline): 50 % of control | T/C (dose: 6.3 mg/kg/injection, schedule: Q01DX010 (ip), vehicle: water): 78 % of control

C[C@H]1C(=O)O[C@@H]2CCN3CC=C(COC(=O)[C@](C)(O)[C@@]1(C)O)[C@H]23
T/C [2]: 86 % of control | T/C [3]: 56 % of control | T/C [4]: 30 % of control | T/C [5]: 36 % of control and 44 % of control | T/C (dose: 60.0 mg/kg/injection, schedule: Q01DX010 (ip), vehicle: carboxymethylcellulose (CMC)): 6 % of control and 17 % of control

S=P(N1CCOCC1)(N1CC1)N1CC1
T/C [11]: 88 % of control and 100 % of control | T/C [12]: 116 % of control | T/C [13]: 1 % of control

O=C1CCC(N2C(=O)c3ccccc3C2=O)C(=O)N1 (stereo not given)
T/C (dose: 18.75 mg/kg/injection, schedule: Q01DX010 (ip), vehicle: carboxymethylcellulose (CMC)): 55 % of control | T/C [6]: 104 % of control | T/C (dose: 75.0 mg/kg/injection, schedule: Q01DX010 (ip), vehicle: carboxymethylcellulose (CMC)): 107 % of control | T/C (dose: 150.0 mg/kg/injection, schedule: Q01DX010 (ip), vehicle: carboxymethylcellulose (CMC)): 82 % of control and 99 % of control | T/C (dose: 300.0 mg/kg/injection, schedule: Q01DX010 (ip), vehicle: carboxymethylcellulose (CMC)): 107 % of control and 113 % of control | T/C (dose: 600.0 mg/kg/injection, schedule: Q01DX010 (ip), vehicle: carboxymethylcellulose (CMC)): 82 % of control

— PubChem BioAssay AID332 (DTP/NCI, 2004)
